# Laboratory results published in ChEMBL document CHEMBL4138123, “Design, synthesis and biological evaluation of novel pyrazolochalcones as potential modulators of PI3K/Akt/mTOR pathway and inducers of apoptosis in breast cancer cells” (Eur J Med Chem, 2017).
# Legend:
# Format in all cases: functional
# [1] = system: A549; assay: Cytotoxicity against human A549/ATCC cells assessed as growth inhibition after 48 hrs by sulforhodamine B assay; settings: A549, 48 h
# [2] = system: MDA-MB-231; assay: Cytotoxicity against human MDA-MB-231 cells assessed as growth inhibition after 48 hrs by sulforhodamine B assay; settings: MDA-MB-231, 48 h
# [3] = system: CCRF-CEM; assay: Cytotoxicity against human CCRF-CEM cells assessed as cell growth at 0.01 uM after 48 hrs by sulforhodamine B assay relative to control; settings: read-out: Activity
# [4] = system: SK-MEL-5; assay: Cytotoxicity against human SK-MEL-5 cells assessed as cell growth at 0.01 uM after 48 hrs by sulforhodamine B assay relative to control; settings: SK-MEL-5, 48 h, read-out: Activity
# [5] = system: U-251; assay: Cytotoxicity against human U251 cells assessed as cell growth at 0.01 uM after 48 hrs by sulforhodamine B assay relative to control; settings: U-251, 48 h, read-out: Activity
# [6] = system: SF-539; assay: Cytotoxicity against human SF539 cells assessed as cell growth at 0.01 uM after 48 hrs by sulforhodamine B assay relative to control; settings: SF-539, 48 h, read-out: Activity
# [7] = system: RPMI-8226; assay: Cytotoxicity against human RPMI8226 cells assessed as cell growth at 0.01 uM after 48 hrs by sulforhodamine B assay relative to control; settings: RPMI-8226, 48 h, read-out: Activity
# [8] = system: RXF 393; assay: Cytotoxicity against human RXF393 cells assessed as cell growth at 0.01 uM after 48 hrs by sulforhodamine B assay relative to control; settings: RXF 393, 48 h, read-out: Activity
# [9] = system: MDA-MB-231; assay: Cytotoxicity against human MDA-MB-231 cells assessed as cell growth at 0.01 uM after 48 hrs by sulforhodamine B assay relative to control; settings: MDA-MB-231, 48 h, read-out: Activity
# [10] = system: MDA-MB-468; assay: Cytotoxicity against human MDA-MB-468 cells assessed as cell growth at 0.01 uM after 48 hrs by sulforhodamine B assay relative to control; settings: MDA-MB-468, 48 h, read-out: Activity
# [11] = system: RPMI-8226; assay: Cytotoxicity against human RPMI8226 cells assessed as cell growth at 0.1 uM after 48 hrs by sulforhodamine B assay relative to control; settings: RPMI-8226, 48 h, read-out: Activity
# [12] = system: HOP-62; assay: Cytotoxicity against human HOP62 cells assessed as cell growth at 0.1 uM after 48 hrs by sulforhodamine B assay relative to control; settings: HOP-62, 48 h, read-out: Activity
# [13] = system: HCC 2998; assay: Cytotoxicity against human HCC2998 cells assessed as cell growth at 0.1 uM after 48 hrs by sulforhodamine B assay relative to control; settings: HCC 2998, 48 h, read-out: Activity
# [14] = system: SF-268; assay: Cytotoxicity against human SF268 cells assessed as cell growth at 0.1 uM after 48 hrs by sulforhodamine B assay relative to control; settings: SF-268, 48 h, read-out: Activity
# [15] = system: UACC-62; assay: Cytotoxicity against human UACC62 cells assessed as cell growth at 0.1 uM after 48 hrs by sulforhodamine B assay relative to control; settings: UACC-62, 48 h, read-out: Activity
# [16] = system: SK-OV-3; assay: Cytotoxicity against human SKOV3 cells assessed as cell growth at 0.1 uM after 48 hrs by sulforhodamine B assay relative to control; settings: SK-OV-3, 48 h, read-out: Activity
# [17] = system: MOLT-4; assay: Cytotoxicity against human MOLT4 cells assessed as cell growth at 1 uM after 48 hrs by sulforhodamine B assay relative to control; settings: MOLT-4, 48 h, read-out: Activity
# [18] = system: SR; assay: Cytotoxicity against human SR cells assessed as cell growth at 1 uM after 48 hrs by sulforhodamine B assay relative to control; settings: read-out: Activity
# [19] = system: NCI-H23; assay: Cytotoxicity against human NCI-H23 cells assessed as cell growth at 1 uM after 48 hrs by sulforhodamine B assay relative to control; settings: NCI-H23, 48 h, read-out: Activity
# [20] = system: NCI-H322M; assay: Cytotoxicity against human NCI-H322M cells assessed as cell growth at 1 uM after 48 hrs by sulforhodamine B assay relative to control; settings: read-out: Activity
# [21] = system: COLO 205; assay: Cytotoxicity against human COLO205 cells assessed as cell growth at 1 uM after 48 hrs by sulforhodamine B assay relative to control; settings: COLO 205, 48 h, read-out: Activity
# [22] = system: UACC-257; assay: Cytotoxicity against human UACC257 cells assessed as cell growth at 1 uM after 48 hrs by sulforhodamine B assay relative to control; settings: UACC-257, 48 h, read-out: Activity
# [23] = system: IGROV-1; assay: Cytotoxicity against human IGROV1 cells assessed as cell growth at 1 uM after 48 hrs by sulforhodamine B assay relative to control; settings: IGROV-1, 48 h, read-out: Activity
# [24] = system: DU-145; assay: Cytotoxicity against human DU145 cells assessed as cell growth at 1 uM after 48 hrs by sulforhodamine B assay relative to control; settings: DU-145, 48 h, read-out: Activity
# [25] = system: MDA-MB-231; assay: Cytotoxicity against human MDA-MB-231 cells assessed as cell growth at 1 uM after 48 hrs by sulforhodamine B assay relative to control; settings: MDA-MB-231, 48 h, read-out: Activity
# [26] = system: MDA-MB-468; assay: Cytotoxicity against human MDA-MB-468 cells assessed as cell growth at 1 uM after 48 hrs by sulforhodamine B assay relative to control; settings: MDA-MB-468, 48 h, read-out: Activity
# [27] = system: NCI-H226; assay: Cytotoxicity against human NCI-H226 cells assessed as cell growth at 10 uM after 48 hrs by sulforhodamine B assay relative to control; settings: NCI-H226, 48 h, read-out: Activity
# [28] = system: SF-539; assay: Cytotoxicity against human SF539 cells assessed as cell growth at 10 uM after 48 hrs by sulforhodamine B assay relative to control; settings: SF-539, 48 h, read-out: Activity
# [29] = system: OVCAR-3; assay: Cytotoxicity against human OVCAR3 cells assessed as cell growth at 10 uM after 48 hrs by sulforhodamine B assay relative to control; settings: OVCAR-3, 48 h, read-out: Activity
# [30] = system: MCF7; assay: Cytotoxicity against human MCF7 cells assessed as cell growth at 10 uM after 48 hrs by sulforhodamine B assay relative to control; settings: MCF7, 48 h, read-out: Activity
# [31] = system: HCT-15; assay: Cytotoxicity against human HCT15 cells assessed as cell growth at 100 uM after 48 hrs by sulforhodamine B assay relative to control; settings: HCT-15, 48 h, read-out: Activity
# [32] = system: SF-539; assay: Cytotoxicity against human SF539 cells assessed as cell growth at 100 uM after 48 hrs by sulforhodamine B assay relative to control; settings: SF-539, 48 h, read-out: Activity
# [33] = system: SK-MEL-5; assay: Cytotoxicity against human SK-MEL-5 cells assessed as cell growth at 100 uM after 48 hrs by sulforhodamine B assay relative to control; settings: SK-MEL-5, 48 h, read-out: Activity
# [34] = system: UACC-62; assay: Cytotoxicity against human UACC62 cells assessed as cell growth at 100 uM after 48 hrs by sulforhodamine B assay relative to control; settings: UACC-62, 48 h, read-out: Activity
# [35] = system: TK-10; assay: Cytotoxicity against human TK10 cells assessed as cell growth at 100 uM after 48 hrs by sulforhodamine B assay relative to control; settings: TK-10, 48 h, read-out: Activity
Structure (SMILES),LC50 (concentration giving 50% net cell kill) [1] [µM],TGI [1] [µM],LC50 [2] [µM],TGI [2] [µM],growth at 0.01 µM [3] [%],growth at 0.01 µM [4] [%],growth at 0.01 µM [5] [%],growth at 0.01 µM [6] [%],growth at 0.01 µM [7] [%],growth at 0.01 µM [8] [%],growth at 0.01 µM [9] [%],growth at 0.01 µM [10] [%],growth at 0.1 µM [11] [%],growth at 0.1 µM [12] [%],growth at 0.1 µM [13] [%],growth at 0.1 µM [14] [%],growth at 0.1 µM [15] [%],growth at 0.1 µM [16] [%],growth at 1 µM [17] [%],growth at 1 µM [18] [%],further results
COc1ccc(-c2cc(/C=C/C(=O)c3ccc(N)cc3)[nH]n2)cc1,46.9,10.2,55.5,8.29,99,97,97,98,99,95,93,103,100,100,98,93,97,103,80,45,GI50 [1]: 2.55 µM; GI50 [2]: 2.14 µM; growth at 1 µM [19]: 93%; growth at 1 µM [20]: 69%; growth at 1 µM [21]: 100%; growth at 1 µM [22]: 90%; growth at 1 µM [23]: 89%; growth at 1 µM [24]: 64%; growth at 1 µM [25]: 78%; growth at 1 µM [26]: 29%; growth at 10 µM [27]: -29%; growth at 10 µM [28]: -61%; growth at 10 µM [29]: -70%; growth at 10 µM [30]: -30%; growth at 100 µM [31]: -59%; growth at 100 µM [32]: -94%; growth at 100 µM [33]: -100%; growth at 100 µM [34]: -93%; growth at 100 µM [35]: -91%
COc1ccc(C(=O)/C=C/c2cc(-c3cc(OC)c(OC)c(OC)c3)n[nH]2)cc1OC,15.7,4.59,6.32,3.06,95,97,96,97,94,100,104,89,79,100,88,89,95,105,88,11,growth at 1 µM [19]: 93%; growth at 1 µM [20]: 83%; growth at 1 µM [21]: 95%; growth at 1 µM [22]: 81%; growth at 1 µM [23]: 96%; growth at 1 µM [24]: 32%; growth at 1 µM [25]: 77%; growth at 1 µM [26]: 45%; growth at 10 µM [27]: -81%; growth at 10 µM [28]: -94%; growth at 10 µM [29]: -91%; growth at 10 µM [30]: -76%; growth at 100 µM [31]: -60%; growth at 100 µM [32]: -96%; growth at 100 µM [33]: -92%; growth at 100 µM [34]: -93%; growth at 100 µM [35]: -99%
